Laboratory results published in ChEMBL document CHEMBL1128845, “Novel trityl linked drug immunoconjugates for cancer therapy” (Bioorg Med Chem Lett, 1995).
Values after ≈ are worked out from the molar mass of the structure shown.

Tests used:
LS174T = assay: Concentration required to inhibit the incorporation of [3H]leucine to 50 percent of control uptake in LS174T (CEA +ve) Human Colon Carcinoma cells; assay type: functional, cell-based
[1] = Conjugation ratio (CR) indicating the number of moles of compound required per 1 mole of antibody (having Molar input ratio (MIR) = 8) was determined

IC50 (LS174T) [µg/mL] | CR [1] | Compound
4.94 (≈ 8 µM) | 5.73 | COc1ccc(C(Nc2nc(N)nc3c2ncn3[C@@H]2O[C@H](CO)[C@@H](O)C2(F)F)(c2ccccc2)c2ccc(C(N)=O)cc2)cc1 (stereo partly drawn)
6.04 (≈ 10 µM) | 5.2 | Cc1ccc(C(Nc2nc(N)nc3c2ncn3[C@@H]2O[C@H](CO)[C@@H](O)C2(F)F)(c2ccccc2)c2ccc(C(N)=O)cc2)cc1 (stereo partly drawn)
2.71 (≈ 4.29 µM) | 7.49 | COc1ccc(C(Nc2nc(N)nc3c2ncn3[C@@H]2O[C@H](CO)[C@@H](O)C2(F)F)(c2ccc(C)cc2)c2ccc(C(N)=O)cc2)cc1 (stereo partly drawn)

Continued, compound first:

Compound | IC50 (LS174T) [µg/mL] | CR [1]
NC(=O)c1ccc(C(Nc2nc(N)nc3c2ncn3[C@@H]2O[C@H](CO)[C@@H](O)C2(F)F)(c2ccccc2)c2ccccc2)cc1 | 10 (≈ 17 µM) | 4.44
COc1ccc(C(Nc2nc(N)nc3c2ncn3[C@@H]2O[C@H](CO)[C@@H](O)C2(F)F)(c2ccc(OC)cc2)c2cccc(C(N)=O)c2)cc1 | 0.352 (≈ 0.544 µM) | 6.44
Nc1nc(N)c2ncn([C@@H]3O[C@H](CO)[C@@H](O)C3(F)F)c2n1 | 0.26 (≈ 0.86 µM) | –
COc1ccc(C(Nc2nc(N)nc3c2ncn3[C@@H]2O[C@H](CO)[C@@H](O)C2(F)F)(c2ccc(OC)cc2)c2ccc(C(N)=O)cc2)cc1 | 0.27 (≈ 0.417 µM) | 7.44
